Test results taken from US6410515B1, “Peptide, a method for its preparation and a pharmaceutical composition containing the peptide” (Immunotech Developments Inc., priority 1995, dated 2002).

Experiments:
[1] = Solubility of the peptide; assay type: physicochemical
Excerpt: The resulting peptide has the following physical and chemical properties and characteristics: […]

[2] = test system: patients with cytopenias of immune origin; test: Clinical study: blood indices and lymphocyte subpopulations; assay type: in vivo; conditions: for CD4+/CD8+ ratio After iDD treatment: normal 0.7-3.3; for % of cells After iDD treatment: CD4−CD8+ T-Suppressers: normal 18.9-47.9; for % of cells After iDD treatment: CD4+CD8− T-helpers: normal 31.4-63.8
Experimental: The peptide iDD was given to patients with cytopenias of immune origin and its effect on hemopoietic status was assessed using a number of immunological tests characterising both humoral and cellular immunity.
The iDD was administered 0.1 mg in a 1 ml dose intranasally (once or twice in divided doses) for 5 days. The regime was repeated after a two week interval. For patients receiving steroids and cytostatics, iDD was administered during the therapy or before the cytostatic treatment.
Below are cited the examples of indices dynamics in some patients.

(CBA×C57B1)F1 mice = test: Chronic graft versus host reaction (GVHR); assay type: in vivo; conditions: for Mouse weight: iDD 10 μg/kg/injection
Experimental: The effect of the peptide on a chronic “graft versus host reaction ” (GVHR) was studied, using the mode l described by Bundic et al. (Exp. Immunol. 1995, 99, p.467). Chronic GVHR was induced in hybrid non-irradiated animals by injecting them twice with large amounts (100 mln) of spleen cells of one of the parents.
Recipients were (CBA×C57B1)F1 mice, and donors of spleen cells were mice of the strain C57B1. The preparation iDD was administered in the same dose (10 μg/kg/injection) as in the tests on transplantation of allogenic bone marrow. Th e five-day treatment course began 24 hours after the first injection of spleen cells and lasted three weeks. Control group mice received Medium 199 in the same amount and at the same time as test mice received the peptide. Each group consisted of 15 animals.
Indicators of the degree of GVHR development were animal weight and splenomegaly (as measured by the increase in recipient's spleen weight on day 21). The effectiveness of the preparation was assessed by splenomegaly suppression expressed in % to control (splenomegaly in the control group was taken for […]). The interval between the first and the second injections of spleen cells was 7 days.
On day 21, a sharp increase in weight was recorded in 70% of control mice and 55% of test mice.

[3] = test system: hyperthermic bone marrow cells (CFU-S); test: Survival of CFU-S of bone marrow after heating at 42° C.; assay type: cell-based
Experimental: Hyperthermia is used in the treatment of various cancer types. When treating leukosis, the damaged bone marrow cells are heated at approximately 41-42° C. in order to kill malignant cells as they are more sensitive to heat. However, some non-malignant stem cells may also be affected. Consequently, the ability of the iDD peptide to protect cells during hyperthermia was tested. A suspension of the bone marrow, previously incubated for 1 hour at 37° C. in the presence of iDD (0.2 μg/4×10^6 cells), was heated for 30 minutes at 42° C. It was then diluted until the necessary concentration was reached and transplanted to the lethally radiated recipients The quantity of the exogenous colonies in the spleen was determined on the ninth day. […] The decrease of the colony formation under the action of iDD is not critical, because its colony-inhibiting action is reversible.

[4] = test system: CFU-S population of bone marrow; test: Spleen colony and CFU-S count after peptide injection to marrow donor mice; assay type: in vivo; conditions: for Colony count: control 10,7 ± 0,5; for CFU-S count: control 2436
Experimental: The effect of peptides of the present invention on a population of hemopoietic progenitors was studied by testing for colony formation by hemopoietic stem cells in spleens of irradiated mice.
The peptide was injected intraperitoneally (IP) at different concentrations to intact mice. After two hours, one day, or two days the animals were killed. The bone marrow from the animals was taken to prepare a suspension of marrow cells, which was injected to lethally irradiated (8.5 Gy) mice. Along with the bone marrow, the recipients received injections of thymocytes. After 9 days, spleen colonies were counted. […]
The treatment was performed as described in Example 4(c).

[5] = test system: allogenic bone marrow (C57B1 donor, F1 (CBA×C57B1) recipient); test: Taking of allogenic bone marrow transplant and survival; assay type: in vivo, mice
Experimental: The preparations were administered daily for the first 5 days after transplantation of bone marrow transplants of donor mice C57B1 to lethally irradiated recipient mice F1 (CBA×C57B1), starting from the 1st hour after the transplantation.

[6] = Peptide IP to donor mice 2 hours before
[7] = Peptide IP to donor mice 1 day before
[8] = Peptide IP to donor mice 2 days before

Q: Which Solubility in alcohol ([1]; alcohol) does the source give for H-D-iGlu-D-Trp-OH [iDD] here?
A: Its Solubility in alcohol is “moderately soluble”.

Q: What about the Solubility in chloroform ([1]; chloroform) of the same substance?
A: The Solubility in chloroform was “insoluble”.

Q: And the Solubility in water ([1]; water)?
A: The Solubility in water was “readily soluble”.

Q: What about the “Absolute count after iDD: CD3−CD16,56+ nat. killers” value ([2]; Patient A, before 0.164) of the same substance?
A: Its value is 0.108 bln/l.

Q: And the “Absolute count after iDD: CD3+HLA−DR+ activated T-lymphocytes” value ([2]; Patient A, before 0.388)?
A: The value was 0.251 bln/l.

Q: What about the “Absolute count after iDD: CD4−CD8+ T-Suppressers” value ([2]; Patient A, before 0.657) of the same substance?
A: The value was 0.305 bln/l.

Q: What about the “Absolute count after iDD: CD4+CD8− T-helpers” value ([2]; Patient A, before 0.769) of the same substance?
A: The value was 0.522 bln/l.

Q: And the “Absolute count after iDD: CD45++CD14− lymphocytes” value ([2]; Patient A, before 1.6)?
A: The value was 0.9 bln/l.

Q: What about the Haemoglobin content ([2]; Patient A, iDD, no steroids) of the same substance?
A: Its Haemoglobin content is 106 g/L.

Q: What about the “CD4+/CD8+ ratio After iDD treatment” value ([2]; Patient A, test sample 1.2) of the same substance?
A: The value was 1.7.

Q: What about the “% of cells After iDD treatment: CD45+CD14+ monocytes” value ([2]; Patient A, test sample 6.1) of the same substance?
A: Its value is 3.3%.

Q: And the “% of cells After iDD treatment: CD3−CD16,56+ nat. killers” value ([2]; Patient A, test sample 10.3)?
A: The value was 12.0%.

Q: And the “% of cells After iDD treatment: CD3+HLA−DR+ activated T-lymphocytes” value ([2]; Patient A, test sample 24.3, normal 2.8-17.3)?
A: Its value is 27.9%.

Q: What about the “% of cells After iDD treatment: CD45++CD14− lymphocytes” value ([2]; Patient A, test sample 33.2) of the same substance?
A: Its value is 34.8%.

Q: And the “% of cells After iDD treatment: CD4−CD8+ T-Suppressers” value ([2]; Patient A, test sample 41.1)?
A: Its value is 33.9%.

Q: What about the “% of cells After iDD treatment: CD45+CD14− granulocytes” value ([2]; Patient A, test sample 41.4) of the same substance?
A: Its value is 48.5%.

Q: What about the “% of cells After iDD treatment: CD4+CD8− T-helpers” value ([2]; Patient A, test sample 48.1) of the same substance?
A: The value was 58.0%.

Q: What about the “Absolute count after iDD: CD3−CD16,56+ nat. killers” value ([2]; Patient K, before 0.057) of the same substance?
A: Its value is 0.054 bln/l.

Q: What about the “Absolute count after iDD: CD4+CD8− T-helpers” value ([2]; Patient K, before 0.614) of the same substance?
A: The value was 0.393 bln/l.

Q: What about the “Absolute count after iDD: CD4−CD8+ T-Suppressers” value ([2]; Patient K, before 0.712) of the same substance?
A: The value was 0.510 bln/l.

Q: What about the “Absolute count after iDD: CD45++CD14− lymphocytes” value ([2]; Patient K, before 1.68) of the same substance?
A: Its value is 1.09 bln/l.

Q: What about the “CD4+/CD8+ ratio After iDD treatment” value ([2]; Patient K, test sample 0.8) of the same substance?
A: Its value is 0.8.

Q: What about the “% of cells After iDD treatment: CD3−CD16,56+ nat. killers” value ([2]; Patient K, test sample 3.4, normal 4.8-26.7) of the same substance?
A: Its value is 5.0%.

Q: What about the “% of cells After iDD treatment: CD45+CD14+ monocytes” value ([2]; Patient K, test sample 5.3) of the same substance?
A: The value was 5.2%.

Q: What about the “% of cells After iDD treatment: CD45++CD14− lymphocytes” value ([2]; Patient K, test sample 26.0) of the same substance?
A: The value was 20.2%.

Q: And the “% of cells After iDD treatment: CD4+CD8− T-helpers” value ([2]; Patient K, test sample 36.3)?
A: The value was 36.1%.

Q: And the “% of cells After iDD treatment: CD4−CD8+ T-Suppressers” value ([2]; Patient K, test sample 44.5)?
A: Its value is 46.8%.

Q: And the “% of cells After iDD treatment: CD45+CD14− granulocytes” value ([2]; Patient K, test sample 55.8)?
A: Its value is 74.7%.

Q: And the Survival rate ((CBA×C57B1)F1 mice; 21 days, control 80%)?
A: The Survival rate was 100%.

Q: And the “Weight loss throughout the experiment” value ((CBA×C57B1)F1 mice; 21 days, control group weight loss 3 g)?
A: Its value is “practically no weight loss”.

Q: What about the “Splenomegaly suppression, %” value ((CBA×C57B1)F1 mice; day 21, relative to control) of the same substance?
A: The value was 26%.

Q: And the Splenomegaly ((CBA×C57B1)F1 mice; day 21, control 12,6 ± 1,2, intact 3,4 ± 0,3)?
A: Its Splenomegaly is 10,2 ± 1,0 mg spleen per mg body weight.

Q: What about the “Mice with sharp increase in weight on day 21” value ((CBA×C57B1)F1 mice; day 21, control 70%) of the same substance?
A: The value was 55%.

Q: What about the Mouse weight ((CBA×C57B1)F1 mice; day 0 after the first injection of spleen cells, control 22,3 ± 0,9) of the same substance?
A: Its Mouse weight is 22,6 ± 0,7 g.

Q: And the Mouse weight ((CBA×C57B1)F1 mice; day 7, control 21,7 ± 0,8)?
A: Its Mouse weight is 25,0 ± 0,6 g.

Q: And the Mouse weight ((CBA×C57B1)F1 mice; day 14, control 18,3 ± 0,9)?
A: Its Mouse weight is 23,3 ± 1,0 g.

Q: What about the Mouse weight ((CBA×C57B1)F1 mice; day 21, control 19,3 ± 1,1) of the same substance?
A: Its Mouse weight is 22,7 ± 0,9 g.

Q: And the “Medium quantity of colonies” value ([3]; iDD 0.2 μg/4×10^6 cells + heating 30 minutes at 42° C., control + heating 5.9 ± 0.6)?
A: The value was 6.9 ± 0.6.

Q: And the “Medium quantity of colonies” value ([3]; iDD 0.2 μg/4×10^6 cells, no heating, control 11.4 ± 0.4)?
A: The value was 6.0 ± 0.6.

Q: And the “Survival of CFU-S, %” value ([3]; iDD + heating, control + heating 51.7)?
A: Its value is 115%.

Q: What about the “Survival of CFU-S, %” value ([3]; iDD, no heating (reference)) of the same substance?
A: Its value is 100%.

Q: What about the Colony count [4, 6] of the same substance?
A: Its Colony count is 6,6 ± 0,5.

Q: What about the CFU-S count [4, 6] of the same substance?
A: The CFU-S count was 917.

Q: And the Colony count [4, 7]?
A: The Colony count was 4,7 ± 0,6.

Q: What about the CFU-S count [4, 7] of the same substance?
A: Its CFU-S count is 653.

Q: What about the Colony count ([4]; Peptide IP to donor mice 2 days before + thymocytes) of the same substance?
A: The Colony count was 9,4 ± 0,9.

Q: What about the Colony count [4, 8] of the same substance?
A: The Colony count was 6,0 ± 0,9.

Q: And the CFU-S count [4, 8]?
A: The CFU-S count was 1098.

Q: And the “CFU-S taking root, %” value ([5]; C57B1 marrow to F1, Cyclosporin A 25μg/kg sc, iDD 10μg/kg ip, untreated 17,3)?
A: The value was 43%.

Q: And the Average colony count ([5]; C57B1 marrow to F1, daily 5 days, Cyclosporin A 25μg/kg sc, iDD 10μg/kg ip, per 10^5 cells, untreated 1,7 ± 0,3)?
A: Its Average colony count is 4,2 ± 0,3.

Q: What about the “MCL (Medium continuation of life)” value ([5]; after 42 days, control 14,3) of the same substance?
A: The value was 6,0.

Q: And the “Survived mice, %” value ([5]; after 42 days, control 50)?
A: Its value is 93%.
